Measurements published in US9648880B2, “Antifungal agents and uses thereof” (University of Massachusetts, priority 2012, dated 2017).
“Also recorded” adds a separate entry of the source.

Key:
Format in all cases: cell-based, Candida albicans
[1] = test system: C. albicans SC5314-GFP biofilm; assay: biofilm formation on silicone elastomers; settings: for dry weight of biofilm / biofilm formation, visual inspection: 50 μM, 60 hrs; for biofilm formation, visual inspection: silicone mesh
Procedure: FIGS. 5A-5C. Effect of small molecules on biofilm formation in vitro. FIG. 5A is a series of photographs showing biofilm formation on silicone elastomers. Biofilm assay was performed with SC5314-GFP and edt1^Δ/Δ-GFP and photographed after 60 hrs. Indicated compounds were added at 50 μM. Turbid medium indicates planktonic cells unattached to silicone elastomers when biofilm formation is inhibited. Clear medium with the cell attached to the silicone elastomer indicate establishment of functional biofilm. Each treatment was done in triplicate. FIG. 5B is a graph showing quantitation of turbidity of medium. Media was removed from the wells, vortexed vigorously and the OD at 600 nm was measured in a spectrophotometer. FIG. 5C is a graph showing quantitation of dry weight of biofilm. Dry weight in mg of air-dried silicone elastomers.
Fungal biofilm formation on implanted medical devices is a serious medical problem because these biofilms can lead to life-threatening systemic infections. An established in vitro assay to study device colonization makes use of silicone mesh as a surrogate surface (Nobile, 2006). We tested how the compounds that affected polystyrene adhesion (FIG. 1) would affect biofilm formation by visual inspection of the biofilms formed, by measuring the optical density of the supernatant liquid cultures, and by measuring their dry weights. […] Therefore, compounds #4 and Q1 were effective inhibitors of both hyphal morphogenesis (FIG. 4) and biofilm formation on silicone mesh (FIG. 5).
We adapted a published method (Nobile, 2006, supra). Autoclaved, pre-weighed silicone mesh squares (Bentec, Catalog Number PR72034-04N) were incubated overnight at 37° C. with undiluted bovine serum. Following washing with PBS, the squares were transferred to 12-well plates and incubated with 0.5 OD/ml SC5314-GFP cells in Spider medium (with or without drugs as indicated), for 90 min at 37° C., shaking at 200 rpm. Squares were washed in PBS and transferred to new 12-well plates containing fresh Spider medium with fresh drugs and incubated for 60 hrs in a 37° C. shaker at 200 rpm. The plates were then photographed, the liquid media were collected for A600 nm measurements, and the dry weights of the bound biofilms were measured following drying of the silicone squares in a chemical hood.

[2] = test system: C. albicans adherence to human lung epithelial A549 cells; assay: epithelial cell binding assay; settings: 25 μM; 37° C., 90 min
Text: In addition to experiments with inert surfaces, we also tested how the candidate compounds would affect C. albicans adherence to human cells, measuring binding of Green Fluorescent Protein (GFP)-encoding C. albicans cells to monolayers of human lung epithelial A549 cells, which are an effective substrate for Candida adhesion (Kitamura, Antimicrob Agents Chemother. 53: 3963-3971, 2009). […] We conclude that compound #4 is not toxic to this human cell line under our assay concentrations, but can impair fungal adhesion both to inert surfaces and to cultured human epithelial cells.
Human lung epithelial A549 cells (Giard, 1973) were grown to confluence on Nunc 48 well plates in RPMI+10% FBS and Penicillin/Streptomycin. Media was decanted and plates were carefully washed 3 times with PBS to remove unbound cells. Pre-grown overnight cultures of SC5314-GFP and edt1^−/−-GFP C. albicans cells were resuspended in fresh SC+0.2% glucose at 0.5 OD/ml and 250 μl of yeast suspension were plated onto to each well. Following incubation at 37° C. for 1.5 hours, media was decanted, and the monolayers were washed carefully 3 times with 250 μl PBS. Fluorescence from bound yeast was measured (485 Ex/535 Em) using the Synergy HT plate reader (BioTek) after addition of 100 μl PBS/well.

[3] = test system: C. albicans hyphae formation; assay: filamentation assay (hyphal morphogenesis); settings: for inhibition of hyphal formation and induction of RFP: 12.5 μM, Spider media 16 hours, HWP1-RFP reporter
Text: Because the ability to interconvert between yeast and hyphal morphologies is usually correlated with pathogenicity (Finkel, 2010), we explored this observation in more detail. First, we assessed the effect of our compounds on the induction of hyphae by “Spider” media (Chauhan, 2009). For this experiment, we used a strain that contains the hyphal-specific HWP1 promoter to the Red Fluorescent Protein (RFP) open reading frame (Ganguly, 2011), which provides a molecular reporter for hyphae formation that we used in addition to visual examination of cell morphology. We initially tested each of the compounds that inhibit adhesion to polystyrene (FIG. 1B), as well as compounds #9, Q1 and Q2 (FIG. 3A), at concentration of 12.5 μM. […] Compounds Q1 and Q2 share a “Scaffold 1” backbone with compounds #4 and #9, but contain a quinoline group (FIG. 3A). Therefore, the compounds with a quinoline group can inhibit hyphae formation, but not adhesion to polystyrene or human cells (FIG. 3). […] Additionally, multiple chemical backbones are able to inhibit hyphae formation, because compound #12 has a “Scaffold 2” backbone (Table 2). To better discriminate the inhibitory compounds, we tested #4, 12 and Q1 at lower concentrations. […] Furthermore, as in the polystyrene adhesion assay (FIG. 8), compound #4 is effective at inhibiting hyphae formation at concentrations >2.5 μM.
Overnight cultures of SC5314 or SGH584 were pregrown in uridine-supplemented SC media at 30° C. to an OD600>13 and diluted 1:10 into prewarmed Spider medium (1% Peptone (Difco), 1% Mannitol (Sigma) and 0.2% K2HPO4 (Sigma) (Chauhan, 2009) in glass tubes and grown for 16 hrs at 37° C. shaking at 200 rpm in the presence or absence of drugs as indicated. DIC and fluorescence images were acquired using a Zeiss Axiovert 200 inverted microscope equipped with a Qicam 12-bit Fast 1394 digital CCD camera (Qimaging). Image acquisition was carried out using Openlab 5 software (Improvison).
Because the ability to interconvert between yeast and hyphal morphologies is usually correlated with pathogenicity, we explored this in more detail, examining induction of hyphae upon carbon starvation (using Spider media). We used a strain that contains the Red Fluorescent Protein (RFP) open reading frame driven by the hyphal-specific HWP1 promoter (Ganguly et al., Eukaryotic Cell 10:1448, 2011), which provides a molecular reporter for hyphae formation in addition to cell morphology. […] Therefore, the shared backbone of these compounds correlates with inhibition of multiple activities.
Hyphal morphogenesis is induced by multiple stimuli that act via multiple signal transduction pathways and is mediated by a complex transcriptional network. […] We detected morphological difference between control and compound #4-treated cultures as early as 60 minutes in 10% serum, and 90 minutes in Spider media.

Row | Structure (SMILES) | dry weight of biofilm [1] | biofilm formation, visual inspection [1] | biofilm formation on silicone mesh ([1]; Example 14) | inhibition of C. albicans adhesion to human A549 cells [2] | hyphae formation induced by Spider media ([3]; 10 μM) | inhibition of hyphal formation and induction of RFP [3] | earliest morphological difference between control and treated cultures ([3]; 10% serum) [minutes] | hyphal response to Spider media and mammalian serum ([3]; 37° C.) | concentrations effective at inhibiting hyphae formation ([3]; Spider media) [µM] | earliest morphological difference between control and treated cultures ([3]; Spider media) [minutes] | formation of hyphae ([3]; Spider media, HWP1-RFP reporter (Example 14)) | time at which effect could be detected after Spider media addition ([3]; protein reporter assay)
1 | Cc1ccc(C(=O)N2CCN(c3ccc([N+](=O)[O-])cc3)CC2)cc1Cl [Compound 4] | most effective at reducing biofilm formation | most effectively kept the cells dispersed in the media rather than on the mesh | effective inhibitors of both hyphal morphogenesis and biofilm formation on silicone mesh | by far the strongest inhibitor of adhesion to human epithelial cells; also recorded: strongly inhibited | completely blocked the hyphae formation | most potently inhibited hyphal formation and induction of RFP | 60 | inhibited the response to both these stimuli | > 2.5 | 90 | blocked formation of hyphae | within two hours
2 | O=C(c1ccc(Cl)c(Cl)c1)N1CCN(c2ccc([N+](=O)[O-])cc2)CC1 [Compound 9] | most effective at reducing biofilm formation | most effectively kept the cells dispersed in the media rather than on the mesh | – | not #9 effectively inhibited human cell binding | – | most potently inhibited hyphal formation and induction of RFP | – | – | – | – | – | –
